Results reported in ChEMBL document CHEMBL1201862, “PubChem BioAssay data set” (2004).
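These data come from cells grown in 96-well plates and exposed to compound for 48 hours at five concentrations. GI50 is the concentration that inhibits growth by half.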 The source made the active and inactive calls. Cut-off read from the data, not from the text of the source: active = GI50 up to about 1.1 µM and inactive = higher.

Key:
Test in all cases: DTP human tumour cell line panel, 48 h
[1] = tested on: OVCAR-5
[2] = tested on: SW-620
[3] = tested on: K562
[4] = tested on: SK-OV-3
[5] = tested on: UACC-62
[6] = tested on: U-251
[7] = tested on: ACHN
[8] = tested on: SNB-75
[9] = tested on: 786-0
[10] = tested on: SF-539
[11] = tested on: HT-29
[12] = tested on: NCI-H522
[13] = tested on: MOLT-4
[14] = tested on: CAKI-1
[15] = tested on: UACC-257
[16] = tested on: SK-MEL-2

Measured: GI50

O=C1C2c3[nH]c4ccccc4c3[C@@H]3CCCCCCCCCCC3C2C(=O)N1c1ccccc1 (stereo not given in full)
inactive: [1] > 100 µM | [2] 15.2 µM | [3] 8.67 µM | [4] 10.4 µM | [5] 20.1 µM | [6] 18.2 µM | [7] 25.9 µM | [8] 3.18 µM | [9] 16.1 µM | [10] 10.1 µM | [11] 27.6 µM

COc1cc(C2C(Cl)C(=O)N2NC(=O)Cc2ccccc2)cc(Br)c1O (stereo not given)
inactive: [1] > 100 µM | [2] > 100 µM | [3] > 100 µM | [4] > 100 µM | [12] 56 µM | [5] 55 µM | [6] > 100 µM | [13] 50.6 µM | [14] > 100 µM | [7] > 100 µM | [8] 64.9 µM | [9] > 100 µM | [15] > 100 µM | [16] > 100 µM | [11] > 100 µM

Cc1cc2c(C)nn(Cc3ccccc3)c2c(C(=O)O)c1C
inactive: [1] > 100 µM | [2] > 100 µM | [4] > 100 µM | [5] > 100 µM | [6] > 100 µM | [13] > 100 µM | [7] > 100 µM | [9] > 100 µM | [15] > 100 µM | [10] > 100 µM | [16] > 100 µM

Cc1cc2cc(Cl)ccc2nc1C(=O)c1ccccc1
inactive: [1] > 100 µM | [2] > 100 µM | [3] > 100 µM | [12] > 100 µM | [5] > 100 µM | [6] > 100 µM | [13] > 100 µM | [14] > 100 µM | [7] > 100 µM | [8] 21.3 µM | [9] > 100 µM | [15] 32.4 µM | [10] > 100 µM | [16] > 100 µM

CCC1CCc2c(OC)ccc(OCC(=O)O)c2C1=O (stereo not given)
inactive: [1] > 100 µM | [2] > 100 µM | [3] > 100 µM | [4] > 100 µM | [12] > 100 µM | [5] > 100 µM | [6] > 100 µM | [13] > 100 µM | [7] > 100 µM | [8] > 100 µM | [9] > 100 µM | [15] > 100 µM | [10] > 100 µM | [16] > 100 µM

COC(=O)c1onc(-c2c(OC)cc(OC)cc2OC)c1C(=O)OC
inactive: [1] > 100 µM | [2] > 100 µM | [3] > 100 µM | [4] > 100 µM | [12] > 100 µM | [5] > 100 µM | [6] > 100 µM | [13] > 100 µM | [14] > 100 µM | [7] > 100 µM | [8] > 100 µM | [9] > 100 µM | [15] > 100 µM | [16] > 100 µM | [11] > 100 µM
